The values that follow are results of earlier work, collected in patent publication US5811459A, “Ortho substituted aromatic compounds useful as antagonists of the pain enhancing effects of E-type prostaglandins” (Zeneca Limited, priority 1994, dated 1998).

For series [1], the system named is cat trachea or chick ileum. Particulars: other tissues such as the cat trachea or chick ileum.
Series [2] has as its system guinea pig ileum or dog fundus. The note with it: some tissues such as guinea pig ileum or dog fundus.

Consider `CC(=O)NNC(=O)N1Cc2ccccc2Oc2ccc(Cl)cc21` [SC-19220], for which the “block of the effect of PGE2” value in series [1] is reported as “not on other tissues”; in series [2] it was “blocks the effect of PGE2”.
